Source: article PMC11044217 (ACS Omega, 2024)

What was measured:
[1] = biological target: hBACE-1 (Homo sapiens, UniProt P56817); experiment: BACE-1 inhibition, FRET-based fluorometric assay; type: biochemical
[2] = in vitro; settings: pig, PAMPA, pH 7.4
[3] = biological target: hAChE (Homo sapiens, UniProt P22303); experiment: hAChE inhibition, Ellman's colorimetric method; type: biochemical
[4] = biological target: PAS of hAChE (Homo sapiens, UniProt P22303); experiment: Propidium iodide displacement assay; type: binding; settings: for inhibition at 10 µM: read-out: (%) PAS-AChE propidium iodide displacement (% inhibition) at 10 μM; for inhibition at 50 µM: read-out: (%) PAS-AChE propidium iodide displacement (% inhibition) at 50 μM
PAS of hAChE, sequence (P22303 32-614): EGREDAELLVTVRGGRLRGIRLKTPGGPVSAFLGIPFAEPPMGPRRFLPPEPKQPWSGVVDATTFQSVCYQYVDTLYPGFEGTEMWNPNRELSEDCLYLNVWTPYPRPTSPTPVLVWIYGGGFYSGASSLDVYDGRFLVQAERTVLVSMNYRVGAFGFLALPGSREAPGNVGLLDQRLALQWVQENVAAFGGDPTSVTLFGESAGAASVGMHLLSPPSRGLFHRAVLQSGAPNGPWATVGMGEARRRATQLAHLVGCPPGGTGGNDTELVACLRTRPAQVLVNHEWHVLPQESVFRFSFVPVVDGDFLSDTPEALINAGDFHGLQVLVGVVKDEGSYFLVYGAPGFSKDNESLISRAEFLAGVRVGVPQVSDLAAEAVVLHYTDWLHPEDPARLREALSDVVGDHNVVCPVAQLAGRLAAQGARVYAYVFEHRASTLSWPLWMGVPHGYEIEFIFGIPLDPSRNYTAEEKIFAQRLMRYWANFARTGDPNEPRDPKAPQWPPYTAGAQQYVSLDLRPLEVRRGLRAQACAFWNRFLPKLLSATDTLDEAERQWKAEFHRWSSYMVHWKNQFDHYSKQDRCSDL

[5] = biological target: hBChE (Homo sapiens, UniProt P06276); experiment: hBChE inhibition, Ellman's colorimetric method; type: biochemical; settings: IC50 ± SEM hBChE, n = 3
hBChE, sequence (P06276 29-602): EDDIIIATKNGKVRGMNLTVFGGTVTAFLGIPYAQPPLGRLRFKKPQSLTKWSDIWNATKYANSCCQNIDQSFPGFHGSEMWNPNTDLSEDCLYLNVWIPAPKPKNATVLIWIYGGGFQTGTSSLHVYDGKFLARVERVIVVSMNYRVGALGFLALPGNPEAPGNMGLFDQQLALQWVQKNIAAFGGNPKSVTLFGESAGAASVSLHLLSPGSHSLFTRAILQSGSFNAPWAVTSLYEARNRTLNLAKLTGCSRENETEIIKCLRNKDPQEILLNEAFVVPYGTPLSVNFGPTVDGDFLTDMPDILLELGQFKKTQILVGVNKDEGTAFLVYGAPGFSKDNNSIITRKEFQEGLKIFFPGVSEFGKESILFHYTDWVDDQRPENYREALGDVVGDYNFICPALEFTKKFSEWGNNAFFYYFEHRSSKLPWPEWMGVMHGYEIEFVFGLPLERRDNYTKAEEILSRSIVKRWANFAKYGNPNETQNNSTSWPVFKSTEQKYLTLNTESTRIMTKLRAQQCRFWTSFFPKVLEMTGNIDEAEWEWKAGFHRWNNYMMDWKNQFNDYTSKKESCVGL

[6] = DPPH radical scavenging assay; settings: in methanol
[7] = tested on: Swiss albino mice; experiment: Scopolamine-induced Y-maze test; type: in vivo; settings: scopolamine-induced cognitive dysfunction mice model, p < 0.001
[8] = tested on: catalase (CAT); experiment: Ex vivo catalase; type: in vivo, Swiss albino mice; settings: hippocampal brain homogenate
[9] = biological target: T1, AChE (Mus musculus, UniProt P21836); experiment: Ex vivo AChE level in hippocampal brain homogenate; set-up: species or system Swiss albino mice; settings: in comparison with scopolamine-treated group
T1 sequence (P21836 32-614): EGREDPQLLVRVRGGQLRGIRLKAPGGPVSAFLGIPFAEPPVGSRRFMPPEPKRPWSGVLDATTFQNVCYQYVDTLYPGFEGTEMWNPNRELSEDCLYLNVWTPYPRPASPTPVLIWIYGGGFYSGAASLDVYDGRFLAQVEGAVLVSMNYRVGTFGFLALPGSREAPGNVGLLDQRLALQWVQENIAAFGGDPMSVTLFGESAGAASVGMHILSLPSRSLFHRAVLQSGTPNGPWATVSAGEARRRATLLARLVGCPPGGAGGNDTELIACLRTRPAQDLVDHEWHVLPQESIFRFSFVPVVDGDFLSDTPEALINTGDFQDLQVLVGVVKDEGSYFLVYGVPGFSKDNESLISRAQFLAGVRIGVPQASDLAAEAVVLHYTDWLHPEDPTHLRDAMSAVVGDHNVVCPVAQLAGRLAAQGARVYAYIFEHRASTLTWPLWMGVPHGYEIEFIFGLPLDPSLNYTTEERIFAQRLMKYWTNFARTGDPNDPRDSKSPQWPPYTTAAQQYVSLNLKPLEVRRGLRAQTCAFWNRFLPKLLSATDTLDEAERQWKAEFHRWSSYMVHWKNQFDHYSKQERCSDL

hBACE-1, sequence (P56817 46-501): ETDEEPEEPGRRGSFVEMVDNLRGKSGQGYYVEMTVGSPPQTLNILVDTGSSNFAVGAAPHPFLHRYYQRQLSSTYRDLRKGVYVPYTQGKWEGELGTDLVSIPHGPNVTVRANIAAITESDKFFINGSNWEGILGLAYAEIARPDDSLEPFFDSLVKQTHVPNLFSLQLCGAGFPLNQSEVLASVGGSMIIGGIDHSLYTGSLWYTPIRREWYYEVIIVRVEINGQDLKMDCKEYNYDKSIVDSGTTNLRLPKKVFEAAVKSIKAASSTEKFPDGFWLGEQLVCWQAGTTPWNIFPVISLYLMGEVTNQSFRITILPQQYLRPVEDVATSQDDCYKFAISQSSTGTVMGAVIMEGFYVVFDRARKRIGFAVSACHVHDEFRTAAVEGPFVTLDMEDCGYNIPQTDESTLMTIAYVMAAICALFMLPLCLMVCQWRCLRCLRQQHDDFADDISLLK
hAChE, sequence (P22303 32-617 isoform P22303-2 limits assumed): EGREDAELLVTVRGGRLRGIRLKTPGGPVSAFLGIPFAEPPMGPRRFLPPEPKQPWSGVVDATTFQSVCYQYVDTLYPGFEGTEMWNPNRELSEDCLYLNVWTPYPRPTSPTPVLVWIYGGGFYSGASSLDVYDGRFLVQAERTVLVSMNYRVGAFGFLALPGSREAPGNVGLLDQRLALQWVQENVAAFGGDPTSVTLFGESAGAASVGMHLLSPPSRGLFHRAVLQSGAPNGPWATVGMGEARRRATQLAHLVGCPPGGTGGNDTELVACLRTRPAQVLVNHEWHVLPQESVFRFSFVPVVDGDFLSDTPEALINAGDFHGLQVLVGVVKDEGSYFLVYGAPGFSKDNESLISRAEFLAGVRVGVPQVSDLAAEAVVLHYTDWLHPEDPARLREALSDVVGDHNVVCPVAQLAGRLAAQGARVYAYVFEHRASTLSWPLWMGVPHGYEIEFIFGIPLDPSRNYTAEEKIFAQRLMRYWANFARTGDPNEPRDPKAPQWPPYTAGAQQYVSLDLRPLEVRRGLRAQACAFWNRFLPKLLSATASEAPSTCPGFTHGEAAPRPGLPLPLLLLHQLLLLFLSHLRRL

## COc1ccc(N2CCN(Cc3nnc(-c4ccccc4)o3)CC2)cc1 [5AH, 2-((4-(4-Methoxyphenyl)piperazin-1-yl)methyl)-5-phenyl-1,3,4-oxadiazole]
[1]
  IC50: 1.685 ± 0.012 µM
[2]
  Papp: 5.8 ± 0.175 ×10⁻⁶ cm/s
[3]
  IC50: 1.48 ± 0.0719 µM
[4]
  inhibition at 10 µM: 19.2 ± 1.81%
  inhibition at 50 µM: 26.7 ± 1.34%
[5]
  IC50: > 10 µM
[6]
  % RSA of DPPH ± SEM at 25 μM: 38.78 ± 2.9%

## c1ccc(CN2CCN(Cc3nnc(-c4ccccc4)o3)CC2)cc1 [5AB, 2-((4-Benzylpiperazin-1-yl)methyl)-5-phenyl-1,3,4-oxadiazole]
[1]
  IC50: > 10 µM
[3]
  IC50: 1.79 ± 0.032 µM
[4]
  inhibition at 10 µM: 18.4 ± 1.07%
  inhibition at 50 µM: 29.5 ± 1.33%
[5]
  IC50: > 10 µM
[6]
  % RSA of DPPH ± SEM at 25 μM: 42.24%

## c1ccc(-c2nnc(CN3CCN(c4ccccn4)CC3)o2)cc1 [5AD, 2-Phenyl-5-((4-(pyridin-2-yl)piperazin-1-yl)methyl)-1,3,4-oxadiazole]
[1]
  IC50: 1.34 ± 0.078 µM
[2]
  Papp: 6.5 ± 0.072 ×10⁻⁶ cm/s
[3]
  IC50: 0.103 ± 0.0172 µM
[5]
  IC50: ≥ 10 µM
[7]
  learning and memory: significant improvement in learning and memory
[6]
  % RSA of DPPH ± SEM at 25 μM: 44.35%
[8]
  catalase (CAT) level in brain homogenate: increase in catalase
[9]
  AChE level in hippocampal brain homogenate: decrease in AChE

## Cc1ccc(CN2CCN(Cc3nnc(-c4ccccc4)o3)CC2)cc1 [5AI, 2-((4-(4-Methylbenzyl)piperazin-1-yl)methyl)-5-phenyl-1,3,4-oxadiazole]
[1]
  IC50: 0.392 ± 0.021 µM
[3]
  IC50: 1.797 ± 0.0081 µM
[4]
  inhibition at 10 µM: 17.7 ± 1.26%
[6]
  % RSA of DPPH ± SEM at 25 μM: 36.24 ± 2.6%

## O=C1O[C@H]([C@@H](O)CO)C(O)=C1O [Ascorbic acid, reference compound]
[6]
  % RSA of DPPH ± SEM at 25 μM: 59.65 ± 2.3%

## c1ccc(-c2nnc(CN3CCN(c4ccccc4)CC3)o2)cc1 [5AA, 2-Phenyl-5-((4-phenylpiperazin-1-yl)methyl)-1,3,4-oxadiazole]
[3]
  IC50: 1.83 ± 0.076 µM
[5]
  IC50: > 10 µM

## c1ccc(-c2nnc(CN3CCN(C(c4ccccc4)c4ccccc4)CC3)o2)cc1 [5AC, 2-((4-Benzhydrylpiperazin-1-yl)methyl)-5-phenyl-1,3,4-oxadiazole]
[1]
  IC50: 5.62 ± 0.073 µM
[3]
  IC50: 3.15 ± 0.0202 µM

## O=[N+]([O-])c1ccc(N2CCN(Cc3nnc(-c4ccccc4)o3)CC2)cc1 [5AF, 2-((4-(4-Nitrophenyl)piperazin-1-yl)methyl)-5-phenyl-1,3,4-oxadiazole]
[1]
  IC50: 6.242 ± 0.03 µM
[3]
  IC50: 1.87 ± 0.0441 µM
[5]
  IC50: > 10 µM

## Cc1ccc(N2CCN(Cc3nnc(-c4ccccc4)o3)CC2)cc1 [5AG, 2-Phenyl-5-((4-(p-tolyl)piperazin-1-yl)methyl)-1,3,4-oxadiazole]
[1]
  IC50: 3.81 ± 0.039 µM
[3]
  IC50: 2.59 ± 0.0169 µM
[5]
  IC50: > 10 µM
[6]
  % RSA of DPPH ± SEM at 25 μM: 36.30 ± 2.5%
